ChEMBL document CHEMBL5042500 (J Med Chem, 2022)

Experiments:
[1] = biological target: T1, Serine/threonine-protein kinase Sgk1 (Homo sapiens, UniProt O00141); test: Inhibition of recombinant human SGK1 expressed in baculovirus expression system using 5-carboxyfluorescein -RPRAATF-NH2 as substrate preincubated for 30 mins followed by substrate addition in presence of 10 uM ATP and measured after 60 mins by microfluidics assay
T1 sequence (O00141 whole entry): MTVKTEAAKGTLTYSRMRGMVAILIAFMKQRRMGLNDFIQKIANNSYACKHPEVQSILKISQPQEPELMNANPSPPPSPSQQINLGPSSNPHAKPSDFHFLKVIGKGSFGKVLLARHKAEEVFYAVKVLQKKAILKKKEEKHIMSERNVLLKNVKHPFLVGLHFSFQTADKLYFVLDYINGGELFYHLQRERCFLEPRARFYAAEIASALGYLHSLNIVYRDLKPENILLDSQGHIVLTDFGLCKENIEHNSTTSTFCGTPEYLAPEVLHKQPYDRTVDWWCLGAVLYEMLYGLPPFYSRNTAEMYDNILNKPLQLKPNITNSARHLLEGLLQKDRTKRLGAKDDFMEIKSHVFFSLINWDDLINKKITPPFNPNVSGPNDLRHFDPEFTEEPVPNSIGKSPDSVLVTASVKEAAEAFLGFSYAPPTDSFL

[2] = biological target: T1, Serine/threonine-protein kinase Sgk1; test: Inhibition of recombinant human SGK1 expressed in baculovirus expression system using 5-carboxyfluorescein -RPRAATF-NH2 as substrate preincubated for 30 mins followed by substrate addition in presence of 500 uM ATP and measured after 60 mins by microfluidics assay
[3] = Photostability of compound; format: physicochemical

IC50 [1] | IC50 [2] | Stability [3] | SMILES
< 1 nM | 128 nM | – | O=C(NCc1ncc[nH]1)c1cc(-c2ccc(NS(=O)(=O)c3cccc(Cl)c3Cl)cc2)nc2[nH]ncc12
1 nM | 1 nM | – | Cc1n[nH]c2nc(-c3ccc(NS(=O)(=O)c4cc(Cl)ccc4F)cc3)nc(OC3CCCNC3)c12 (centres undefined)
– | – | 91.7% | Nc1n[nH]c2nc(-c3ccc(NS(=O)(=O)c4cc(Cl)ccc4F)cc3)ccc12
< 1 nM | 327 nM | – | O=C(NCc1cocn1)c1cc(-c2ccc(NS(=O)(=O)c3cccc(Cl)c3Cl)cc2)nc2[nH]ncc12
2 nM | 4 nM | – | Cc1n[nH]c2nc(-c3ccc(NS(=O)(=O)c4cc(Cl)ccc4F)cc3)nc(Oc3ccc(O)nc3)c12
1 nM | 2 nM | – | Cc1n[nH]c2nc(-c3ccc(NS(=O)(=O)c4cc(Cl)ccc4F)cc3)nc(OCC(CO)CO)c12
1 nM | 1 nM | – | Cc1n[nH]c2nc(-c3ccc(NS(=O)(=O)c4cc(Cl)ccc4F)cc3)nc(OC3CCNCC3)c12
2 nM | 10 nM | – | Cc1n[nH]c2nc(-c3ccc(NS(=O)(=O)c4cc(Cl)ccc4F)cc3)nc(OCCCO)c12
10 nM | 246 nM | – | O=C(NCCc1cc[nH]n1)c1cc(-c2ccc(NS(=O)(=O)c3cccc(Cl)c3Cl)cc2)nc2[nH]ncc12
2 nM | 3 nM | – | Cc1n[nH]c2nc(-c3ccc(NS(=O)(=O)c4cc(Cl)ccc4F)cc3)nc(OC3CC(C)(C)N(C)C(C)(C)C3)c12
14 nM | 45 nM | – | CN1CCC(CNC(=O)c2cc(-c3ccc(NS(=O)(=O)c4cccc(Cl)c4Cl)cc3)nc3[nH]ncc23)C1 (racemic)
< 2 nM | < 2 nM | – | Cc1n[nH]c2nc(-c3ccc(NS(=O)(=O)c4cc(Cl)ccc4F)cc3)nc(OC3CCC(O)CC3)c12 (centres undefined)
< 1 nM | < 1 nM | – | CN1CC(NC(=O)c2cc(-c3ccc(NS(=O)(=O)c4cccc(Cl)c4Cl)cc3)nc3[nH]ncc23)C1
– | – | 98.6% | Nc1n[nH]c2nc(-c3ccc(NS(=O)(=O)c4cc(Cl)c(F)cc4F)cc3)ncc12
6 nM | 610 nM | – | O=C(NC1CCN(C2CC2)C1)c1cc(-c2ccc(NS(=O)(=O)c3cccc(Cl)c3Cl)cc2)nc2[nH]ncc12 (racemic)
5 nM | 18 nM | – | Cc1n[nH]c2nc(-c3ccc(NS(=O)(=O)c4cc(Cl)ccc4F)cc3)nc(OC3CCC(=O)CC3)c12
23 nM | 183 nM | – | CCOc1nc(-c2ccc(NS(=O)(=O)c3cc(Cl)ccc3F)cc2)nc2[nH]nc(C)c12
1 nM | 107 nM | – | O=C(NCc1ncn[nH]1)c1cc(-c2ccc(NS(=O)(=O)c3cccc(Cl)c3Cl)cc2)nc2[nH]ncc12
3 nM | 609 nM | – | O=C(NCCn1cnnc1)c1cc(-c2ccc(NS(=O)(=O)c3cccc(Cl)c3Cl)cc2)nc2[nH]ncc12

IC50 [1] | IC50 [2] | Stability [3] | SMILES
55 nM | 265 nM | – | Cc1n[nH]c2nc(-c3ccc(NS(=O)(=O)c4cc(Cl)ccc4F)cc3)nc(OC3CCN(CC(F)(F)F)CC3)c12
15 nM | 438 nM | – | Cc1n[nH]c2nc(-c3ccc(NS(=O)(=O)c4cc(Cl)ccc4F)cc3)nc(OCCC(=O)N(C)C)c12
– | – | 99.3% | Nc1n[nH]c2nc(-c3ccc(NS(=O)(=O)c4cc(Cl)ccc4F)cc3)ncc12
4 nM | 929 nM | – | CNC(=O)c1cc(-c2ccc(NS(=O)(=O)c3cccc(Cl)c3Cl)cc2)nc2[nH]ncc12
109 nM | 1270 nM | – | O=C(NCc1nncs1)c1cc(-c2ccc(NS(=O)(=O)c3cccc(Cl)c3Cl)cc2)nc2[nH]ncc12
< 2 nM | < 2 nM | – | Cc1n[nH]c2nc(-c3ccc(NS(=O)(=O)c4cc(Cl)ccc4F)cc3)nc(OCCCN)c12
– | – | 97.4% | Nc1n[nH]c2nc(-c3ccc(NS(=O)(=O)c4c(F)cc(F)cc4F)cc3)ccc12
< 1 nM | 24 nM | – | CN(CCO)C(=O)c1cc(-c2ccc(NS(=O)(=O)c3cccc(Cl)c3Cl)cc2)nc2[nH]ncc12
– | 963 nM | – | O=C(NCc1cc[nH]n1)c1cc(-c2ccc(NS(=O)(=O)c3cccc(Cl)c3Cl)cc2)nc2[nH]ncc12
– | – | 46.1% | Nc1n[nH]c2nc(-c3ccc(NS(=O)(=O)c4ccccc4Cl)cc3)ccc12
1 nM | 236 nM | – | NC(=O)c1cc(-c2ccc(NS(=O)(=O)c3cccc(Cl)c3Cl)cc2)nc2[nH]ncc12
3 nM | 4 nM | – | Cc1n[nH]c2nc(-c3ccc(NS(=O)(=O)c4cc(Cl)ccc4F)cc3)nc(OC3CC(C)(C)NC(C)(C)C3)c12
< 1 nM | < 1 nM | – | O=C(N[C@@H]1CCNC1)c1cc(-c2ccc(NS(=O)(=O)c3cccc(Cl)c3Cl)cc2)nc2[nH]ncc12
1 nM | 12 nM | – | O=C(NC1CCN(CCO)C1)c1cc(-c2ccc(NS(=O)(=O)c3cccc(Cl)c3Cl)cc2)nc2[nH]ncc12 (racemic)
4 nM | 11 nM | – | Cc1n[nH]c2nc(-c3ccc(NS(=O)(=O)c4cc(Cl)ccc4F)cc3)nc(Oc3ccc(N)nc3)c12
< 1 nM | 21 nM | – | CN1CCC(NC(=O)c2cc(-c3ccc(NS(=O)(=O)c4cccc(Cl)c4Cl)cc3)nc3[nH]ncc23)C1 (racemic)
4 nM | 38 nM | – | CC(C)N1CC[C@H](NC(=O)c2cc(-c3ccc(NS(=O)(=O)c4cccc(Cl)c4Cl)cc3)nc3[nH]ncc23)C1
< 1 nM | < 1 nM | – | NCCNC(=O)c1cc(-c2ccc(NS(=O)(=O)c3cccc(Cl)c3Cl)cc2)nc2[nH]ncc12
1 nM | 1 nM | – | Cc1n[nH]c2nc(-c3ccc(NS(=O)(=O)c4cc(Cl)ccc4F)cc3)nc(OC3CCNCC3(F)F)c12 (centres undefined)

IC50 [1] | IC50 [2] | Stability [3] | SMILES
19 nM | 2470 nM | – | Nc1nc(CNC(=O)c2cc(-c3ccc(NS(=O)(=O)c4cccc(Cl)c4Cl)cc3)nc3[nH]ncc23)cs1
5 nM | 14 nM | – | Cc1n[nH]c2nc(-c3ccc(NS(=O)(=O)c4cc(Cl)ccc4F)cc3)nc(OC3CCOCC3)c12
6 nM | – | – | CCN1CCCC(Oc2nc(-c3ccc(NS(=O)(=O)c4cc(Cl)ccc4F)cc3)nc3[nH]nc(C)c23)C1 (centres undefined)
2 nM | 2 nM | – | Cc1n[nH]c2nc(-c3ccc(NS(=O)(=O)c4cc(Cl)ccc4F)cc3)nc(OCC3CNCCO3)c12 (centres undefined)
4 nM | 813 nM | – | O=C(NCc1nn[nH]n1)c1cc(-c2ccc(NS(=O)(=O)c3cccc(Cl)c3Cl)cc2)nc2[nH]ncc12
– | – | 87.2% | Nc1n[nH]c2nc(-c3ccc(NS(=O)(=O)c4cccc(Cl)c4F)cc3)ccc12
2 nM | 1280 nM | – | O=C(c1cc(-c2ccc(NS(=O)(=O)c3cccc(Cl)c3Cl)cc2)nc2[nH]ncc12)N1CCNCC1
3 nM | 5 nM | – | Cc1n[nH]c2nc(-c3ccc(NS(=O)(=O)c4cc(Cl)ccc4F)cc3)nc(OCC(F)(F)CN)c12
1 nM | 1 nM | – | Cc1n[nH]c2nc(-c3ccc(NS(=O)(=O)c4cc(Cl)ccc4F)cc3)nc(OC3CCNCC3F)c12 (centres undefined)
– | 633 nM | – | CN(C)CCCNC(=O)c1cc(-c2ccc(NS(=O)(=O)c3cccc(Cl)c3Cl)cc2)nc2[nH]ncc12
2 nM | 4 nM | – | CCN1CCC(Oc2nc(-c3ccc(NS(=O)(=O)c4cc(Cl)ccc4F)cc3)nc3[nH]nc(C)c23)CC1
< 1 nM | 109 nM | – | CCN1CCC(CNC(=O)c2cc(-c3ccc(NS(=O)(=O)c4cccc(Cl)c4Cl)cc3)nc3[nH]ncc23)C1 (racemic)
1 nM | 1 nM | – | Cc1n[nH]c2nc(-c3ccc(NS(=O)(=O)c4cc(Cl)ccc4F)cc3)nc(OCC3CN(C(C)C)C3)c12
1 nM | 35 nM | – | O=C(NC1CCN(CC2CC2)C1)c1cc(-c2ccc(NS(=O)(=O)c3cccc(Cl)c3Cl)cc2)nc2[nH]ncc12 (racemic)
3 nM | 5 nM | – | COCCN1CCC(Oc2nc(-c3ccc(NS(=O)(=O)c4cc(Cl)ccc4F)cc3)nc3[nH]nc(C)c23)CC1
68 nM | 17600 nM | – | CC(C)NC(=O)c1cc(-c2ccc(NS(=O)(=O)c3cccc(Cl)c3Cl)cc2)nc2[nH]ncc12
1 nM | 1 nM | – | Cc1n[nH]c2nc(-c3ccc(NS(=O)(=O)c4cc(Cl)ccc4F)cc3)nc(OCC3(CN)COC3)c12
– | – | 10.1% | Nc1n[nH]c2nc(-c3ccc(NS(=O)(=O)c4cccc(Cl)c4Cl)cc3)ccc12
6 nM | < 1920 nM | – | CCNC(=O)c1cc(-c2ccc(NS(=O)(=O)c3cccc(Cl)c3Cl)cc2)nc2[nH]ncc12
